The record followed here is patent US20040138160A1, “Preventive/therapeutic method for cancer” (priority 2001, published 2004).

A value given as a limit tells only on which side of the number the result lay.

Series [1] deals with human breast cancer cell line BT-474. Nature of the series: Inhibitory action on breast cancer cell line BT-474 proliferation in vitro (SRB). In kind it is cell-based. The conditions noted are these: heregulin 0.04 μg/ml, cultured 5 days, read-out: Inhibition of cell proliferation BT-474 (IC50:μM). How it is done:
Cell suspension of human breast cancer cell line BT-474 (100 μl) suspended at 1,000 cells/100 μl), was placed in a 96-well microwell plate and cultured at 37° C. in a 5% carbon dioxide gas incubator. On the following day, 100 μl of a solution of each test compound, previously diluted 2-fold with a heregulin solution prepared to a final concentration of 0.04 μg/ml, was added, and the cells were cultured for 5 days. After the culture medium containing the test compound was removed, the cells were washed and fixed with 5% trichloroacetic acid, after which a 0.4% (w/v) SRB solution (dissolved in 1% acetic acid) was added to fix and stain the cells (Skehan et al., Journal of the National Cancer Institute, Vol. 82, pp. 1107-1112, 1990). After the pigment solution was removed and the plate was washed with a 1% acetic acid solution, 100 μl of an extractant (10 mM Tris buffer solution) was added to extract and dissolve the pigment; absorbance was measured at an absorption wavelength of 550 nm to quantify the amount of cells as protein content. Taking as 100% the absorbance for the control group, which received no test compound solution, the ratio of the absorbance for each treatment group was determined, and the compound concentration required to achieve 50% suppression of the residual cell content relative to the control (IC50 value) was calculated.

The target of the next series is HER2 (Homo sapiens, UniProt P04626). Nature of the series: Suppression of receptor tyrosine-phosphorylation in human breast cancer cells (intracellular HER2 phosphorylation, MCF-7, heregulin stimulation). Further details: endogenous in cells; host or cells: MCF-7. In kind it is cell-based. The conditions noted are these: MCF-7 cells; test compound 2 hours, then heregulin 0.8 μg/ml 5 minutes; read-out: Intracellular HER2 phosphorylation inhibition MCF-7 (IC50:μM).

What is called melting point is the temperature of the solid-liquid transition.

HER2, sequence (P04626 23-1255): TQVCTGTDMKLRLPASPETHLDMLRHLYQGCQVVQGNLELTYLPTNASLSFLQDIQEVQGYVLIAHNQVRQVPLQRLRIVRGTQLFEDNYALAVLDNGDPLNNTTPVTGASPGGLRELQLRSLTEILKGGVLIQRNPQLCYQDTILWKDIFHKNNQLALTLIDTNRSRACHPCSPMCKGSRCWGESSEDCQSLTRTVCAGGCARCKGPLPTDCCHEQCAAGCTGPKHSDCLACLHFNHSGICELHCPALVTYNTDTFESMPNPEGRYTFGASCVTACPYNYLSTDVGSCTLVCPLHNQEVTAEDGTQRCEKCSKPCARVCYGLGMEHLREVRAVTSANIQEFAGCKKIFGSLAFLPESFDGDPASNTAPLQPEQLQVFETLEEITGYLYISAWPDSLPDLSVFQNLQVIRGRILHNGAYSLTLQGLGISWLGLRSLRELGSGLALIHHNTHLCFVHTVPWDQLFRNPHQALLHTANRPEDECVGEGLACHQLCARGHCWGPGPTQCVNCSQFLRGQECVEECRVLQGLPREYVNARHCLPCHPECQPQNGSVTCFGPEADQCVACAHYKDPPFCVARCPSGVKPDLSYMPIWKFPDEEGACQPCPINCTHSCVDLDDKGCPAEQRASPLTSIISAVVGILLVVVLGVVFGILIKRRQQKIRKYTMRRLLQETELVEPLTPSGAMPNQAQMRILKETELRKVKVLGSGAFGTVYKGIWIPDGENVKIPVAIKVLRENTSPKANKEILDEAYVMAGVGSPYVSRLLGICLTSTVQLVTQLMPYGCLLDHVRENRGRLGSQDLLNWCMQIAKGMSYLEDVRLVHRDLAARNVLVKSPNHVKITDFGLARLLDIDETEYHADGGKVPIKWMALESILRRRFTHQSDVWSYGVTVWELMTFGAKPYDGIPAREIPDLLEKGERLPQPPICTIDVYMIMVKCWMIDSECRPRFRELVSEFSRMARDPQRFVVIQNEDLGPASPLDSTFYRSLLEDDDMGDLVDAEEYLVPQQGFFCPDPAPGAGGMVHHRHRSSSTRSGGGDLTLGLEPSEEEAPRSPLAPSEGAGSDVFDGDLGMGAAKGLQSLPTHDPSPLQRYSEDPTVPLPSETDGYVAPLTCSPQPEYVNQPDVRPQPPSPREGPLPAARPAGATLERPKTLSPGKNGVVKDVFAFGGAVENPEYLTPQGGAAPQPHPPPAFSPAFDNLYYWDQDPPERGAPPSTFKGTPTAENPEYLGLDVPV
Method for HER2: Cell suspension of Human breast cancer cell line MCF-7 (500 μl), suspended at 300,000 cells/0.5 mL, was placed in a 24-well plate and cultured at 37° C. in a 5% carbon dioxide gas incubator. On the following day, 250 μl of a solution of 4-fold serially diluted test compound was added. After 2 hours, 250 μl of a heregulin solution, prepared to a final concentration of 0.8 μg/ml, was added. After 5 minutes, a buffer solution for lysis of extract solution was added to stop the reaction and to extract and yield a cell-lysate protein. After this cell-lysate protein was subjected to SDS-polyacrylamide gel electrophoresis to separate the protein, the protein in the gel was blotted onto a nylon filter. This filter was reacted with an anti-phosphotyrosine specific antibody; the portion containing phosphotyrosine on the filter was luminated using the ECL method to photosensitize an X-ray film. The amount of the film photosensitization was determined using an image analyzer.

Consider `FC(F)(F)c1ccc(/C=C/c2nc(COc3ccc(CCCn4ccnn4)cc3)co2)cc1` [Compound B5, 1-(3-{4-[(2-((E)-2-[4-(trifluoromethyl)phenyl]ethenyl)-1,3-oxazol-4-yl)methoxy]phenyl}propyl)-1H-1,2,3-triazole], for which the melting point fell in the range of 157 to 158 °C.

For `FC(F)(F)c1ccc(/C=C/c2nc(COc3cccc(CCCn4ccnn4)c3)co2)cc1` [Compound B6, 1-(3-{3-[(2-{(E)-2-[4-(trifluoromethyl)phenyl]ethenyl}-1,3-oxazol-4-yl)methoxy]phenyl}propyl)-1H-1,2,3-triazole], the melting point is 115 to 116 °C.

As for `Fc1ccc(/C=C/c2nc(COc3ccc(CCCCn4ccnn4)cc3)co2)c(F)c1` [Compound B7, 1-{4-[4-({2-[(E)-2-(2,4-difluorophenyl)ethenyl]-1,3-oxazol-4-yl}methoxy)phenyl]butyl}-1H-1,2,3-triazole], the melting point is 115 to 117 °C. On the same count and under the same terms, under `Fc1ccc(/C=C/c2nc(COc3cccc(CCCn4ccnn4)c3)co2)c(F)c1` [Compound B8, 1-{3-[3-({2-[(E)-2-(2,4-difluorophenyl)ethenyl]-1,3-oxazol-4-yl}methoxy)phenyl]propyl}-1H-1,2,3-triazole] stands 89 to 90 °C. Same read-out and setting: under `Cc1ccc(/C=C/c2nc(COc3ccc(CCCCn4ccnc4CCO)cc3)co2)cc1` [Compound B10, 2-[1-[4-[4-[[2-[(E)-2-(4-methylphenyl)ethenyl]-1,3-oxazol-4-yl]methoxy]phenyl]butyl]-1H-imidazol-2-yl]-1-ethanol] stands 108 to 109 °C; under `Cc1cccc(/C=C/c2nc(COc3ccc(CCCCn4ccnc4CCO)cc3)co2)c1` [Compound B11, 2-[1-[4-[4-[[2-[(E)-2-(3-methylphenyl)ethenyl]-1,3-oxazol-4-yl]methoxy]phenyl]butyl]-1H-imidazol-2-yl]-1-ethanol], 109 to 111 °C. In turn, `Cc1ccccc1/C=C/c1nc(COc2ccc(CCCCn3ccnc3CCO)cc2)co1` [Compound B12, 2-[1-[4-[4-[[2-[(E)-2-(2-methylphenyl)ethenyl]-1,3-oxazol-4-yl]methoxy]phenyl]butyl]-1H-imidazol-2-yl]-1-ethanol] returned a melting point of 91 to 93 °C. On the same count and under the same terms, under `CCc1ccc(/C=C/c2nc(COc3ccc(CCCCn4ccnc4CCO)cc3)co2)cc1` [Compound B13, 2-[1-[4-[4-[[2-[(E)-2-(4-ethylphenyl)ethenyl]-1,3-oxazol-4-yl]methoxy]phenyl]butyl]-1H-imidazol-2-yl]-1-ethanol] stands 94 to 95 °C; under `OCCc1nccn1CCCCc1ccc(OCc2coc(/C=C/c3ccc(F)cc3)n2)cc1` [Compound B14, 2-(1-{4-[4-({2-[(E)-2-(4-fluorophenyl)ethenyl]-1,3-oxazol-4-yl}methoxy)phenyl]butyl)-1H-imidazol-2-yl)-1-ethanol], 130 to 132 °C.

Compound `OCCc1nccn1CCCCc1ccc(OCc2coc(/C=C/c3ccc(Cl)cc3)n2)cc1` [Compound B15, 2-[1-[4-[4-[[2-[(E)-2-(4-chlorophenyl)ethenyl]-1,3-oxazol-4-yl]methoxy]phenyl]butyl]-1H-imidazol-2-yl]-1-ethanol] came in with a melting point of 127 to 128 °C. `OCCc1nccn1CCCCc1ccc(OCc2coc(/C=C/c3ccc(Br)cc3)n2)cc1` [Compound B16, 2-[1-[4-[4-[[2-[(E)-2-(4-bromophenyl)ethenyl]-1,3-oxazol-4-yl]methoxy]phenyl]butyl]-1H-imidazol-2-yl]-1-ethanol] yielded a melting point of 149 to 150 °C. The compound `OCCc1nccn1CCCCc1ccc(OCc2coc(/C=C/c3ccc(F)cc3F)n2)cc1` [Compound B19, 2-[1-[4-[4-[[2-[(E)-2-(2,4-difluorophenyl)ethenyl]-1,3-oxazol-4-yl]methoxy]phenyl]butyl]-1H-imidazol-2-yl]-1-ethanol] yielded a melting point of 93 to 95 °C. As to `OCCc1nccn1CCCc1ccc(OCc2coc(/C=C/c3ccc(F)cc3F)n2)cc1` [Compound B20, 2-[1-[3-[4-[[2-[(E)-2-(2,4-difluorophenyl)ethenyl]-1,3-oxazol-4-yl]methoxy]phenyl]propyl]-1H-imidazol-2-yl]-1-ethanol], the melting point was in the range of 94 to 96 °C.

With `Cc1cccc(/C=C/c2nc(COc3ccc(CCCCc4c[nH]c(CC(O)CO)n4)cc3)co2)c1` (stereo not drawn) [Compound B22, 3-(4-{4-[4-({2-[(E)-2-(3-methylphenyl)ethenyl]-1,3-oxazol-4-yl}methoxy)phenyl]butyl}-1H-imidazol-2-yl)-1,2-propanediol], the IC50 in series [1] is under 0.05 µM; at HER2 it was 1.9 µM. In turn, `OCC(O)Cc1nccn1CCCCc1ccc(OCc2coc(/C=C/c3ccc(F)cc3)n2)cc1` (stereo not drawn) [Compound B23, 3-(1-{4-[4-({2-[(E)-2-(4-fluorophenyl)ethenyl]-1,3-oxazol-4-yl}methoxy)phenyl]butyl}-1H-imidazol-2-yl)-1,2-propanediol] yielded a melting point of 114 to 116 °C. In turn, `OCC(O)Cc1nccn1CCCCc1ccc(OCc2coc(/C=C/c3ccc(C(F)(F)F)cc3)n2)cc1` (stereo not drawn) [Compound B24, 3-[1-(4-(4-[(2-{(E)-2-[4-(trifluoromethyl)phenyl]ethenyl}-1,3-oxazol-4-yl)methoxy]phenyl]butyl)-1H-imidazol-2-yl]-1,2-propanediol] gave a melting point of 142 to 143 °C. `OCC(O)Cc1nccn1CCCc1cccc(OCc2coc(/C=C/c3ccc(C(F)(F)F)cc3)n2)c1` (stereo not drawn) [Compound B25, 3-[1-(3-{3-[(2-{(E)-2-[4-(trifluoromethyl)phenyl]ethenyl}-1,3-oxazol-4-yl)methoxy]phenyl}propyl)-1H-imidazol-2-yl]-1,2-propanediol]: the melting point is 102 to 104 °C. Turning to `OCC(O)Cc1nccn1CCCCc1ccc(OCc2coc(/C=C/c3ccc(F)cc3F)n2)cc1` (stereo not drawn) [Compound B26, 3-(1-{4-[4-({2-[(E)-2-(2,4-difluorophenyl)ethenyl]-1,3-oxazol-4-yl}methoxy)phenyl]butyl}-1H-imidazol-2-yl)-1,2-propanediol], the melting point was 126 to 128 °C. Still for that read-out and setting: under `OCC(O)Cc1nccn1CCCc1cccc(OCc2coc(/C=C/c3ccc(F)cc3F)n2)c1` (stereo not drawn) [Compound B27, 3-(1-{3-[3-({2-[(E)-2-(2,4-difluorophenyl)ethenyl]-1,3-oxazol-4-yl}methoxy)phenyl]propyl}-1H-imidazol-2-yl)-1,2-propanediol] stands 92 to 94 °C. On the same count and under the same terms, under `OCC(O)Cc1nccn1CCCCc1ccc(OCc2coc(/C=C/c3c(F)cccc3F)n2)cc1` (stereo not drawn) [Compound B28, 3-[1-[4-[4-[[2-[(E)-2-(2,6-difluorophenyl)ethenyl]-1,3-oxazol-4-yl]methoxy]phenyl]butyl]-1H-imidazol-2-yl]-1,2-propanediol] stands 123 to 125 °C.
